# Molecular target: T1, Adrenergic receptor alpha-1 (Rattus norvegicus, UniProt P15823+P23944+P43140)
# T1 sequence (P15823 whole entry): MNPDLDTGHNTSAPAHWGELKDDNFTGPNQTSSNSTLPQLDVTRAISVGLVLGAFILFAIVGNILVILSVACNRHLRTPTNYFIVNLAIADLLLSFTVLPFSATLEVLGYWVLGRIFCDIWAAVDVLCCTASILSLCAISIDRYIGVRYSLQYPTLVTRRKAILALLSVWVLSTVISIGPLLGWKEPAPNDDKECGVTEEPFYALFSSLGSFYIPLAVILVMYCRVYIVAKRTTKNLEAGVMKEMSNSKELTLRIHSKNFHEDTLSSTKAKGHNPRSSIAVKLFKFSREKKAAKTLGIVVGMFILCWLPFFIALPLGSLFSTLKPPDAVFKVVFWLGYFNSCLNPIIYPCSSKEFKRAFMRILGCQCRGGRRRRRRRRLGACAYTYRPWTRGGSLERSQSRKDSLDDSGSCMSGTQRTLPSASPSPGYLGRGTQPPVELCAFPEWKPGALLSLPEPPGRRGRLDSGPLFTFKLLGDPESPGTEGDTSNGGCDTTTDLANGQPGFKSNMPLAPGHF
# T1 sequence (P23944 whole entry): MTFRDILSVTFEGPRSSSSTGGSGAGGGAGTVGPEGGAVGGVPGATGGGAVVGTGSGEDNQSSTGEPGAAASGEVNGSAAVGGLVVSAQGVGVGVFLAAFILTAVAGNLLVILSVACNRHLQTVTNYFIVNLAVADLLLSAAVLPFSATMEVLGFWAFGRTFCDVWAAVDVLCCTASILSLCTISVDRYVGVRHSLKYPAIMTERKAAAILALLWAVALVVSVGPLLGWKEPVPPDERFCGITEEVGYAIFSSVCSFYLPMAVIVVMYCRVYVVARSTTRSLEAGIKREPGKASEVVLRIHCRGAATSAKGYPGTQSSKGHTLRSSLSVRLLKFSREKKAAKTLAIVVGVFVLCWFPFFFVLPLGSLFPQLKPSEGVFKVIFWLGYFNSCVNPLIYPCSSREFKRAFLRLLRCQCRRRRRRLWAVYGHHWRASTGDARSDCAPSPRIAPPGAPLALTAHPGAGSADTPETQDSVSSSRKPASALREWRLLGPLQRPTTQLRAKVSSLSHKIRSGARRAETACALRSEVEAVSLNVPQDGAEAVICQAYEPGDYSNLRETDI
# T1 sequence (P43140 whole entry): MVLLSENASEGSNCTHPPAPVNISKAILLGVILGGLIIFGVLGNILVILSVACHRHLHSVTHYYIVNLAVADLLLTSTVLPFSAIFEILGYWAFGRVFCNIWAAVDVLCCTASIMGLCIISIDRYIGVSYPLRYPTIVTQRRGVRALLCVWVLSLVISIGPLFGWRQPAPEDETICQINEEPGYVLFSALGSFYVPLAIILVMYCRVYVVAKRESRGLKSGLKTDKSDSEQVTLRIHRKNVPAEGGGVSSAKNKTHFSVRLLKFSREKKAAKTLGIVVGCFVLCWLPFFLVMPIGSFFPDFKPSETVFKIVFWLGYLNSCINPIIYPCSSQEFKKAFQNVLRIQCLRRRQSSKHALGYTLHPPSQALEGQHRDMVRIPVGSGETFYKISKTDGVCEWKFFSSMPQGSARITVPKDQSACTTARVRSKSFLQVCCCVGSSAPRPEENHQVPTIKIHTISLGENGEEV
# Test: Antagonist activity at alpha1-adrenoceptor in rat anococcygeal muscle assessed as inhibition of phenylephrine-induced contraction
# Type: functional
row,SMILES,pA2
1,Cc1ccc(N2CCN(CCOc3ccc4c(=O)cc(-c5ccccc5)oc4c3)CC2)cc1,8.647
2,O=c1cc(-c2ccc(Cl)cc2)oc2cc(OCCN3CCN(c4ccccc4)CC3)ccc12,8.579
3,Cc1ccc(N2CCN(CCCCOc3ccc4c(=O)cc(-c5ccc(Cl)cc5)oc4c3)CC2)cc1,8.498
4,Cc1ccccc1N1CCN(CCOc2ccc3c(=O)cc(-c4ccc(Cl)cc4)oc3c2)CC1,8.207
5,Cc1ccccc1N1CCN(CCCCOc2ccc3c(=O)cc(-c4ccc(Cl)cc4)oc3c2)CC1,7.471
6,Cc1ccc(N2CCN(CCCOc3ccc4c(=O)cc(-c5ccc(Cl)cc5)oc4c3)CC2)cc1,8.088
7,Cc1ccc(N2CCN(CCOc3ccc4c(=O)cc(-c5ccc(Cl)cc5)oc4c3)CC2)cc1,8.93
8,O=c1cc(-c2ccc(Cl)cc2)oc2cc(O)ccc12,6.845
9,Cc1ccccc1N1CCN(CCOc2ccc3c(=O)cc(-c4ccccc4)oc3c2)CC1,7.383
10,O=c1cc(-c2ccc(Cl)cc2)oc2cc(OCCCN3CCN(c4ccccc4)CC3)ccc12,8.072
11,Cc1ccccc1N1CCN(CCCOc2ccc3c(=O)cc(-c4ccc(Cl)cc4)oc3c2)CC1,7.772

# Other lines, results leading:
row,pA2,SMILES
1,6.897,O=c1cc(-c2ccccc2)oc2cc(OCCBr)ccc12
2,6.409,O=c1cc(-c2ccccc2)oc2cc(OCCCBr)ccc12
3,7.914,O=c1cc(-c2ccc(Cl)cc2)oc2cc(OCCCCN3CCN(c4ccccc4)CC3)ccc12
4,6.368,O=c1cc(-c2ccc(Cl)cc2)oc2cc(OCCCCBr)ccc12
5,8.333,O=c1cc(-c2ccccc2)oc2cc(OCCCCN3CCN(c4ccccc4)CC3)ccc12
6,6.538,O=c1cc(-c2ccccc2)oc2cc(OCCCCBr)ccc12
7,7.684,Cc1ccc(N2CCN(CCCOc3ccc4c(=O)cc(-c5ccccc5)oc4c3)CC2)cc1
8,6.168,O=c1cc(-c2ccc(Cl)cc2)oc2cc(OCCCBr)ccc12
9,8.177,O=c1cc(-c2ccccc2)oc2cc(OCCCN3CCN(c4ccccc4)CC3)ccc12
10,6.709,Cc1ccc(N2CCN(CCCCOc3ccc4c(=O)cc(-c5ccccc5)oc4c3)CC2)cc1
11,6.609,O=c1cc(-c2ccccc2)oc2cc(O)ccc12 [7-HYDROXYFLAVONE]
12,7.71,Cc1ccccc1N1CCN(CCCCOc2ccc3c(=O)cc(-c4ccccc4)oc3c2)CC1
13,6.925,O=c1cc(-c2ccc(Cl)cc2)oc2cc(OCCBr)ccc12
14,6.93,Cc1ccccc1N1CCN(CCCOc2ccc3c(=O)cc(-c4ccccc4)oc3c2)CC1
15,8.526,O=c1cc(-c2ccccc2)oc2cc(OCCN3CCN(c4ccccc4)CC3)ccc12
